Measured values taken from patent publication US12319643B2, “Ionizable compounds and compositions and uses thereof” (Nitto Denko Corporation, priority 2015, dated 2025).

Assays:
[1] = pKa (Table 9, lipid formulations for siRNA); assay type: physicochemical; conditions: only or first value of the cell
[2] = Serum stability of nanoparticle formulations, t(½) in human serum at 37 C; assay type: in vitro ADME; conditions: Table 10, nanoparticles Ionizable compound/DOPE/Cholesterol/DMPE-PEG 50/28/21/1 mol %
Protocol: (§1) Example 39: Formulations were Prepared for Encapsulating a Small Interfering Nucleic Acid Agents (siRNA)
(§2) Lipid nanoparticle formulations were prepared with the following compositions: […]
(§3) (Ionizable compound/DOPE/Cholesterol/DMPE-PEG) mol % • 50/28/21/1.
The formulations were capable of encapsulating the siRNA, and retaining stability in human serum. […]

GFP = assay: EC50 of nanoparticle formulations, GFP siRNA; assay type: cell-based; conditions: nanoparticles Ionizable compound/DOPE/Cholesterol/DMPE-PEG 50/28/21/1 mol %
Protocol: as §1, §2, §3
The formulations were capable of encapsulating the siRNA, and retaining stability in human serum.

[3] = Particle size Z (ave) of siRNA lipid nanoparticle formulations; assay type: physicochemical; conditions: Table 8: nanoparticles Ionizable compound/DOPE/DOPC/Cholesterol/DMPE-PEG 50/28/0/21/1, 50/28/0/20/2 or 26/21/21/31/1 mol %
Protocol: (§4) Example 38: Formulations were Prepared for Encapsulating a Small Interfering Nucleic Acid Agents (siRNA)
as §2

[4] = Encapsulation efficiency for siRNA of lipid (nanoparticle) formulations; assay type: physicochemical; conditions: Table 8: nanoparticles Ionizable compound/DOPE/DOPC/Cholesterol/DMPE-PEG 50/28/0/21/1, 50/28/0/20/2 or 26/21/21/31/1 mol %
Protocol: as §4, §2

Compound	pKa [1]	t(½) (hr) human serum 37 C. [2] [h]	EC50 (GFP) [nM]	Z (ave) nm [3] [nm]	EE* (%) Encapsulation efficiency for siRNA [4] [%]
CCCCCCCCCCCCCC(=O)OCCN(CCOC(=O)CCCCCCCCCCCCC)C(=O)CN1C[C@H](O)[C@@H](O)C1 [Compound A4, ((2-((3S,4S)-3,4-dihydroxypyrrolidin-1-yl)acetyl)azanediyl)bis(ethane-2,1-diyl) ditetradecanoate]	5.8	–	–	–	–
CCCCC/C=C\C/C=C\CCCCCCCC(=O)OCCN(CCOC(=O)CCCCCCC/C=C\C/C=C\CCCCC)C(=O)CN1C[C@@H](O)[C@H](O)C1 [Compound A5, ((2-((3R,4R)-3,4-dihydroxypyrrolidin-1-yl)acetyl)azanediyl)bis(ethane-2,1-diyl) (9Z,9′Z,12Z,12′Z)-bis(octadeca-9,12-dienoate)]	6.1	>50	6.9	–	–
CCCCC/C=C\C/C=C\CCCCCCCC(=O)OCCN(CCOC(=O)CCCCCCC/C=C\C/C=C\CCCCC)C(=O)CN1C[C@@H](O)[C@@H](O)C1 [Compound A6, ((2-((3S,4R)-3,4-dihydroxypyrrolidin-1-yl)acetyl)azanediyl)bis(ethane-2,1-diyl) (9Z,9′Z,12Z,12′Z)-bis(octadeca-9,12-dienoate)]	6.3	>50	11	121	96
CCCCC/C=C\C/C=C\CCCCCCCC(=O)OCCN(CCOC(=O)CCCCCCC/C=C\C/C=C\CCCCC)C(=O)OCCN(C)C [Compound A7, (((2-(dimethylamino)ethoxy)carbonyl)azanediyl)bis(ethane-2,1-diyl) (9Z,9′Z,12Z,12′Z)-bis(octadeca-9,12-dienoate)]	7.6	>50	35	–	–
CCCCC/C=C\C/C=C\CCCCCCCC(=O)OCCN(CCOC(=O)CCCCCCC/C=C\C/C=C\CCCCC)C(=O)OCC[N+](C)(C)C [Compound A8, 2-((bis(2-(((9Z,12Z)-octadeca-9,12-dienoyl)oxy)ethyl)carbamoyl)oxy)-N,N,N-trimethylethan-1-aminium]	–	>50	–	–	–
CCCCCCCCCCCCCC(=O)OCCN(CCOC(=O)CCCCCCCCCCCCC)C(=O)CN1CC(CO)C1 [Compound A9, ((2-(3-(hydroxymethyl)azetidin-1-yl)acetyl)azanediyl)bis(ethane-2,1-diyl) ditetradecanoate]	7.4	–	31	97	95
CCCCC/C=C\C/C=C\CCCCCCCC(=O)OCCN(CCOC(=O)CCCCCCC/C=C\C/C=C\CCCCC)C(=O)CN1CCN(CCCO)CC1 [Compound AA]	7.4	–	22	120	90
CCCCC/C=C\C/C=C\CCCCCCCC(=O)OCCN(CCOC(=O)CCCCCCC/C=C\C/C=C\CCCCC)C(=O)CN1CCN(CCO)CC1 [Compound AB, ((2-(4-(2-hydroxyethyl)piperazin-1-yl)acetyl)azanediyl)bis(ethane-2,1-diyl) (9Z,9′Z,12Z,12′Z)-bis(octadeca-9,12-dienoate)]	6.9	>50	7.4	–	–
CCCCCCCCCCCCCC(=O)OCCN(CCOC(=O)CCCCCCCCCCCCC)C(=O)CCCC(=O)O [Compound B8]	4.3	>50	–	–	–
CCCC/C=C\C/C=C\CCCCCCCCOC(=O)CC(CC(=O)OCCCCCCCC/C=C\C/C=C\CCCCC)NC(=O)C[N+](C)(C)C (centres unmarked) [Compound C2, 2-((1-(((9Z,12Z)-heptadeca-9,12-dien-1-yl)oxy)-5-(((9Z,12Z)-octadeca-9,12-dien-1-yl)oxy)-1,5-dioxopentan-3-yl)amino)-N,N,N-trimethyl-2-oxoethan-1-aminium]	–	–	33	111	95
CCCC/C=C\C/C=C\CCCCCCCCOC(=O)CC(CC(=O)OCCCCCCCC/C=C\C/C=C\CCCCC)NC(=O)CN(C)C (centres unmarked) [Compound C3, 1-((9Z,12Z)-heptadeca-9,12-dien-1-yl) 5-((9Z,12Z)-octadeca-9,12-dien-1-yl) 3-(2-(dimethylamino)acetamido)pentanedioate]	6.9	–	–	–	–
CCCCC/C=C\C/C=C\CCCCCCCCOC(=O)[C@H](CNC(=O)C[N+](C)(C)C)NC(=O)CCCCCCC/C=C\C/C=C\CCCCC [Compound C24, N,N,N-trimethyl-2-(((S)-3-(((9Z,12Z)-octadeca-9,12-dien-1-yl)oxy)-2-((9Z,12Z)-octadeca-9,12-dienamido)-3-oxopropyl)amino)-2-oxoethan-1l-aminium]	–	>50	92	127	98
CCCCC/C=C\C/C=C\CCCCCCCCOC(=O)[C@H](CNC(=O)CN(C)C)NC(=O)CCCCCCC/C=C\C/C=C\CCCCC [Compound C25, (9Z,12Z)-octadeca-9,12-dien-1-yl (S)-3-(2-(dimethylamino)acetamido)-2-((9Z,12Z)-octadeca-9,12-dienamido)propanoate]	–	>50	–	–	–
CCCCC/C=C\C/C=C\CCCCCCCCOC(=O)CC(CC(=O)OCCCCCCCC/C=C\C/C=C\CCCCC)NC(=O)CN1CCN(CCO)CC1 [Compound CA, di((9Z,12Z)-octadeca-9,12-dien-1-yl) 3-(2-(4-(2-hydroxyethyl)piperazin-1-yl)acetamido)pentanedioate]	–	–	< 50	–	–
CCCCC/C=C\C/C=C\CCCCCCCCOC(=O)CC(CC(=O)OCCCCCCCC/C=C\C/C=C\CCCCC)NC(=O)SCCN(C)C [Compound DD, di((9Z,12Z)-octadeca-9,12-dien-1-yl) 3-((((2-(dimethylamino)ethyl)thio)carbonyl)amino)pentanedioate]	5.1	>50	–	137	92
CCCCC/C=C\C/C=C\CCCCCCCCOC(=O)CC(CC(=O)OCCCCCCCC/C=C\C/C=C\CCCCC)NC(=O)OCCN(C)C [Compound E4, di((9Z,12Z)-octadeca-9,12-dien-1-yl) 3-(((2-(dimethylamino)ethoxy)carbonyl)amino)pentanedioate]	–	>50	2.7	131	94
CCCCC/C=C\C/C=C\CCCCCCCCOC(=O)[C@@H]1C[C@@H](NC(=O)CCN(C)C)CN1C(=O)CCCCCCC/C=C\C/C=C\CCCCC [Compound E37, (9Z,12Z)-octadeca-9,12-dien-1-yl (2S,4R)-4-(3-(dimethylamino)propanamido)-1-((9Z,12Z)-octadeca-9,12-dienoyl)pyrrolidine-2-carboxylate]	9.2	–	–	–	–
CCCCC/C=C\C/C=C\CCCCCCCCOC(=O)[C@@H]1C[C@@H](NC(=O)CCCN(C)C)CN1C(=O)CCCCCCC/C=C\C/C=C\CCCCC [Compound E38, (9Z,12Z)-octadeca-9,12-dien-1-yl (2S,4R)-4-(4-(dimethylamino)butanamido)-1-((9Z,12Z)-octadeca-9,12-dienoyl)pyrrolidine-2-carboxylate]	–	>50	–	–	–
CCCCC/C=C\C/C=C\CCCCCCCCOC(=O)[C@@H]1C[C@@H](NC(=O)CCC[N+](C)(C)C)CN1C(=O)CCCCCCC/C=C\C/C=C\CCCCC [Compound E39, N,N,N-trimethyl-4-(((3R,5S)-5-((((9Z,12Z)-octadeca-9,12-dien-1-yl)oxy)carbonyl)-1-((9Z,12Z)-octadeca-9,12-dienoyl)pyrrolidin-3-yl)amino)-4-oxobutan-1-aminium]	–	>50	–	–	–
CCCCC/C=C\C/C=C\CCCCCCCC(=O)OCCN(CCCN(C)C)C(=O)CCCCCCC/C=C\C/C=C\CCCCC [Compound F5, 2-((9Z,12Z)—N-(3-(dimethylamino)propyl)octadeca-9,12-dienamido)ethyl (9Z,12Z)-octadeca-9,12-dienoate]	9.4	–	33	–	–
CCCCC/C=C\C/C=C\CCCCCCCC(=O)OCCN(CCCCN(C)C)C(=O)CCCCCCC/C=C\C/C=C\CCCCC [Compound F6, 2-((9Z,12Z)—N-(4-(dimethylamino)butyl)octadeca-9,12-dienamido)ethyl (9Z,12Z)-octadeca-9,12-dienoate]	9.3	–	–	–	–
